Reference: US8124793B2, “Derivatives of ethylene methanedisulfonate as cancer chemotherapeutic agents” (priority 2007, dated 2012)

Key:
Type in all cases: cell-based
MDA-MB-231/ATCC = assay: NCI screen, growth of human tumor cells: Breast Cancer MDA-MB-231/ATCC; details: for percent of growth of human tumor cells: MDA-MB-231/ATCC (Breast Cancer); for % Growth: MDA-MB-231 (ATCC)
How it was run: (§1)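 Growth of human tumor cells, expressed as percent, was determined in the NCI screen. Test data list the cancer type and the molar concentration applied.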

SK-MEL-28 = assay: NCI screen, growth of human tumor cells: Melanoma SK-MEL-28
How it was run: as §1

SF-295 = assay: NCI screen, growth of human tumor cells: CNS Cancer SF-295
How it was run: as §1

OVCAR-4 = assay: NCI screen, growth of human tumor cells: Ovarian Cancer OVCAR-4; details: OVCAR-4, 10^−4 molar
How it was run: as §1

KD488 = assay: NCI screen, growth of human tumor cells: Lymphoma KD488
OVCAR-8 = assay: NCI screen, growth of human tumor cells: Ovarian Cancer OVCAR-8; details: for percent of growth of human tumor cells: OVCAR-8 (Ovarian Cancer), 10^−4 molar; for % Growth: OVCAR-8, 10^−4 molar
How it was run: as §1

MCF7/ADR-RES = assay: NCI screen, growth of human tumor cells: Breast Cancer MCF7/ADR-RES; details: MCF7/ADR-RES (Breast Cancer), 10^−4 molar
How it was run: as §1

PC-3 = assay: NCI screen, growth of human tumor cells: Prostate Cancer PC-3
How it was run: as §1

AS283 = assay: NCI screen, growth of human tumor cells: Lymphoma AS283
HL-60 (TB) = assay: NCI screen, growth of human tumor cells: Leukemia HL-60 (TB); details: for % Growth: HL-60(TB)
Description: (§2) In the NCI screening process, each compound was tested and described by a minimum of 60 data points. The test data include, but are not limited to the type of cancer, the molar concentration used in the screen, and the percent growth of the cancer. In some cases, NMR and elemental analysis were used for structural assignment.

PA682 = assay: NCI screen, growth of human tumor cells: Lymphoma PA682
M14 = assay: NCI screen, growth of human tumor cells: Melanoma M14; details: M14, 10^−4 molar
How it was run: as §1

human cancer cells = assay: NCI screen summary over the cancers tested (negative growth of human cancer cells); details: for Percentage of cancers showing negative growth cancers tested: cancers with negative growth / cancers tested
Description: as §2
The derivatives in the tables are grouped using the same category as in the tables 1-6.

SR = assay: NCI screen, growth of human tumor cells: Leukemia SR; details: for % Growth: SR
How it was run: as §1

EKVX = assay: NCI screen, growth of human tumor cells: Non-Small Cell Lung EKVX; details: EKVX, 10^−4 molar
How it was run: as §1

NCI-H23 = assay: NCI screen, growth of human tumor cells: Non-Small Cell Lung NCI-H23
How it was run: as §1

SU-DAL-7 = assay: NCI screen, growth of human tumor cells: Lymphoma SU-DAL-7
RL = assay: NCI screen, growth of human tumor cells: Lymphoma RL
IGROVI = assay: NCI screen, growth of human tumor cells: Ovarian Cancer IGROVI; details: IGROVI
How it was run: as §1

HOP-92 = assay: NCI screen, growth of human tumor cells: Non-Small Cell Lung HOP-92
How it was run: as §1

NCI-H460 = assay: NCI screen, growth of human tumor cells: Non-Small Cell Lung NCI-H460
How it was run: as §1

SK-OV-3 = assay: NCI screen, growth of human tumor cells: Ovarian Cancer SK-OV-3; details: SK-OV-3, 10^−4 molar
How it was run: as §1

MDA-N = assay: NCI screen, growth of human tumor cells: Breast Cancer MDA-N; details: 10^−4 molar
How it was run: as §1

HS 578T = assay: NCI screen, growth of human tumor cells: Breast Cancer HS 578T; details: HS 578T (Breast Cancer), 10^−4 molar
How it was run: as §1

T-47D = assay: NCI screen, growth of human tumor cells: Breast Cancer T-47D; details: 10^−4 molar; for percent of growth of human tumor cells: T-47D (Breast Cancer)
Description: as §2

SW620 = assay: NCI screen, growth of human tumor cells: Colon Cancer SW620
How it was run: as §1

RXF-393 = assay: NCI screen, growth of human tumor cells: Renal Cancer RXF-393
How it was run: as §1

Cc1ccc2ccccc2c1CC1S(=O)(=O)OCCOS1(=O)=O [NSC 679043, ethylene 2-methyl-1-naphyl-1,1-ethanedisulfonate]
percent of growth of human tumor cells (MDA-MB-231/ATCC; 10^−4 molar): −12% | % Growth (SK-MEL-28; SK-MEL-28, 10^−4 molar): −78% | % Growth (SF-295; SF-295, 10^−4 molar): −88% | % Growth (OVCAR-4): −97% | % Growth (KD488; KD488, 10^−4 molar): −45% | % Growth (KD488; KD488, 10^−5 molar): 30% | % Growth (KD488; KD488, 10^−6 molar): 62% | % Growth (KD488; KD488, 10^−7 molar): 54% | percent of growth of human tumor cells (OVCAR-8): −53% | percent of growth of human tumor cells (MCF7/ADR-RES): −12% | % Growth (PC-3; PC-3, 10^−4 molar): −91% | % Growth (PC-3; PC-3, 10^−5 molar): 57% | % Growth (AS283; AS283, 10^−4 molar): −34% | % Growth (AS283; AS283, 10^−5 molar): 37% | % Growth (HL-60 (TB); 10^−4 molar): −49% | % Growth (HL-60 (TB); 10^−5 molar): −33% | % Growth (PA682; PA682, 10^−4 molar): −33% | % Growth (PA682; PA682, 10^−5 molar): 45% | % Growth (M14): −78% | percentage of cancers that had −100% growth (human cancer cells; 10^−4 M conc.): 8% | Percentage of cancers showing negative growth cancers tested (human cancer cells; 10^−4 M conc.): 100% | Percentage of cancers showing negative growth cancers tested (human cancer cells; 10^−5 M conc.): 9% | % Growth (SR; 10^−4 molar): −63% | % Growth (SR; 10^−5 molar): 42% | % Growth (EKVX): −98% | % Growth (NCI-H23; NCI-H23, 10^−4 molar): −48% | % Growth (NCI-H23; NCI-H23, 10^−5 molar): 75% | % Growth (SU-DAL-7; SU-DAL-7, 10^−4 molar): −44% | % Growth (SU-DAL-7; SU-DAL-7, 10^−5 molar): 14% | % Growth (RL; 10^−4 molar): −45% | % Growth (RL; 10^−5 molar): 33%

CC1=C(CC2S(=O)(=O)OCCOS2(=O)=O)C(=O)c2ccccc2C1=O [NSC 693874, ethylene (3-methyl-1,4-naphtho-2-quinoyl)-1,1-ethanedisulfonate]
percent of growth of human tumor cells (MDA-MB-231/ATCC; 10^−4 molar): −22% | % Growth (SK-MEL-28; SK-MEL-28, 10^−4 molar): −83% | % Growth (SF-295; SF-295, 10^−4 molar): −100% | % Growth (SF-295; SF-295, 10^−5 molar): 32% | % Growth (OVCAR-4): −89% | % Growth (IGROVI; 10^−4 molar): −100% | % Growth (IGROVI; 10^−5 molar): 52% | % Growth (OVCAR-8): −71% | % Growth (HOP-92; HOP-92, 10^−4 molar): −88% | percent of growth of human tumor cells (MCF7/ADR-RES): −41% | % Growth (NCI-H460; NCI-H460, 10^−4 molar): −73% | % Growth (NCI-H460; NCI-H460, 10^−5 molar): 59% | % Growth (SK-OV-3): −75% | % Growth (PC-3; PC-3, 10^−4 molar): −80% | percent of growth of human tumor cells (MDA-N): −59% | Percentage of cancers showing negative growth cancers tested (human cancer cells; 10^−4 M conc.): 98% | Percentage of cancers showing negative growth cancers tested (human cancer cells; 10^−5 M conc.): 12% | % Growth (SR; 10^−4 molar): −45% | % Growth (SR; 10^−5 molar): −15% | % Growth (SR; 10^−6 molar): 9% | % Growth (SR; 10^−7 molar): 48% | % Growth (SR; 10^−8 molar): 79% | % Growth (EKVX): −93% | % Growth (NCI-H23; NCI-H23, 10^−4 molar): −89% | % Growth (NCI-H23; NCI-H23, 10^−5 molar): 62% | percent of growth of human tumor cells (HS 578T): −21%

CC(=O)C1(CC2=C(C)C(=O)c3ccccc3C2=O)S(=O)(=O)OCCOS1(=O)=O [NSC 701690]
% Growth (MDA-MB-231/ATCC; 10^−4 molar): −41% | % Growth (MDA-MB-231/ATCC; 10^−5 molar): 39% | % Growth (MDA-MB-231/ATCC; 10^−6 molar): 56% | % Growth (MDA-MB-231/ATCC; 10^−7 molar): 58% | % Growth (MDA-MB-231/ATCC; 10^−8 molar): 45% | % Growth (SK-MEL-28; SK-MEL-28, 10^−4 molar): −100% | % Growth (SK-MEL-28; SK-MEL-28, 10^−5 molar): 58% | % Growth (SF-295; SF-295, 10^−4 molar): −100% | % Growth (OVCAR-4): −100% | % Growth (IGROVI; 10^−4 molar): −100% | % Growth (IGROVI; 10^−5 molar): 40% | % Growth (IGROVI; 10^−6 molar): 60% | % Growth (OVCAR-8): −100% | % Growth (HOP-92; HOP-92, 10^−4 molar): −66% | % Growth (HOP-92; HOP-92, 10^−5 molar): 23% | % Growth (HOP-92; HOP-92, 10^−6 molar): 60% | percent of growth of human tumor cells (MCF7/ADR-RES): −40% | % Growth (NCI-H460; NCI-H460, 10^−4 molar): −100% | % Growth (NCI-H460; NCI-H460, 10^−5 molar): 42% | % Growth (PC-3; PC-3, 10^−4 molar): −38% | % Growth (PC-3; PC-3, 10^−5 molar): 52% | % Growth (PC-3; PC-3, 10^−6 molar): 59% | % Growth (PC-3; PC-3, 10^−7 molar): 28% | % Growth (PC-3; PC-3, 10^−8 molar): 28% | percent of growth of human tumor cells (T-47D): −54% | % Growth (T-47D; T-47D): −54% | % Growth (M14): −100% | Percentage of cancers showing negative growth cancers tested (human cancer cells; 10^−4 M conc.): 100% | Percentage of cancers showing negative growth cancers tested (human cancer cells; 10^−5 M conc.): 5% | Percentage of cancers showing negative growth cancers tested (human cancer cells; 10^−6 M conc.): 14% | % Growth (SR; 10^−4 molar): −100% | % Growth (SR; 10^−5 molar): −8% | % Growth (SR; 10^−6 molar): 19% | % Growth (EKVX): −91% | % Growth (NCI-H23; NCI-H23, 10^−4 molar): −91% | % Growth (SW620; SW620, 10^−4 molar): −100% | % Growth (SW620; SW620, 10^−5 molar): 23% | % Growth (SW620; SW620, 10^−6 molar): 54% | % Growth (RXF-393; RXF-393, 10^−4 molar): −69%

CC1(C)OCC(COC(=O)C(=O)C2(Cc3ccc4c(c3)C(=O)c3ccccc3C4=O)S(=O)(=O)OCCOS2(=O)=O)O1 (centres unmarked) [NSC 737276]
percent of growth of human tumor cells (MDA-MB-231/ATCC; 10^−4 molar): −9% | percent of growth of human tumor cells (SK-MEL-28; SK-MEL-28 (Melanoma), 10^−4 molar): −52% | percent of growth of human tumor cells (SF-295; SF-295 (CNS Cancer), 10^−4 molar): −12% | % Growth (OVCAR-4): −73% | % Growth (IGROVI; 10^−4 molar): −70% | percent of growth of human tumor cells (OVCAR-8): 5% | percent of growth of human tumor cells (HOP-92; HOP-92 (Non-Small Cell Lung), 10^−4 molar): −47% | percent of growth of human tumor cells (MCF7/ADR-RES): −29% | percent of growth of human tumor cells (NCI-H460; NCI-H460 (Non-Small Cell Lung), 10^−4 molar): −59% | % Growth (SK-OV-3): −67% | % Growth (PC-3; PC-3, 10^−4 molar): −68% | percent of growth of human tumor cells (T-47D): −39% | percent of growth of human tumor cells (HL-60 (TB); HL-60 (TB) (Leukemia), 10^−4 molar): −3% | Percentage of cancers showing negative growth cancers tested (human cancer cells; 10^−4 M conc.): 10^−4 M conc. = 49/55 = 89% | percent of growth of human tumor cells (SR; SR (Leukemia), 10^−4 molar): 12% | % Growth (EKVX): −81% | % Growth (NCI-H23; NCI-H23, 10^−4 molar): −75% | % Growth (SW620; SW620, 10^−4 molar): −74% | percent of growth of human tumor cells (RXF-393; RXF-393 (Renal Cancer), 10^−4 molar): −54% | percent of growth of human tumor cells (HS 578T): 17%
